What was measured:
Tubulin = experiment: Inhibition of tubulin polymerization (unknown origin); type: protein-complex assay, Homo sapiens
MCF7 [1] = experiment: Antiproliferative activity against human MCF7 cells; type: functional, cell-based
NCI-H460 = experiment: Growth inhibition of human NCI-H460 cells; type: functional
BXPC-3 = experiment: Growth inhibition of human BXPC-3 cells; type: functional
PANC-1 = experiment: Growth inhibition of human PANC-1 cells; type: functional
HCT-15 = experiment: Antiproliferative activity against human HCT-15 cells; type: functional, cell-based
HeLa [2] = experiment: Antiproliferative activity against human HeLa cells measured after 48 hrs by CCK-8 method; type: functional, cell-based
HepG2 [3] = experiment: Potency index, ratio of doxorubicin IC50 to compound IC50 for anticancer activity against human HepG2 cells; type: functional
MCF7 [4] = experiment: Potency index, ratio of doxorubicin IC50 to compound IC50 for anticancer activity against human MCF7 cells; type: functional
HCT-116 [5] = experiment: Potency index, ratio of doxorubicin IC50 to compound IC50 for anticancer activity against human HCT-116 cells; type: functional
MCF7 [6] = experiment: Cytotoxicity against human MCF7 cells assessed as reduction in cell growth measured after 2 days by MTT assay; type: functional, cell-based; details: MCF7, 48 h
HeLa [7] = experiment: Anticancer activity against human HeLa cells by MTT assay; type: functional, cell-based; details: pooled result: one value given for 4 cell lines, strains, targets or settings
A549 [8] = experiment: Cytotoxicity against human A549 cells; type: functional, cell-based
[9] = Resistance factor, ratio of IC50 for human K562/VCR cells to IC50 for K562 cells; type: functional; details: time 72 hrs
HeLa [10] = experiment: Antiproliferative activity against human HeLa cells measured after 48 hrs by MTT assay; type: functional, cell-based
HepG2 [11] = experiment: Antiproliferative activity against human HepG2 cells measured after 48 hrs by MTT assay; type: functional, cell-based; details: HepG2, 48 h
MCF7 [12] = experiment: Antiproliferative activity against human MCF7 cells measured after 48 hrs by MTT assay; type: functional, cell-based; details: MCF7, 48 h
[13] = Antiproliferative activity against human SUIT-2 cells; type: functional, cell-based
[14] = test system: Panel NCI-60 (60 carcinoma cell lines); experiment: Antiproliferative activity against human Panel NCI-60 (60 carcinoma cell lines) cells; type: functional
UO-31 = experiment: Antiproliferative activity against human UO-31 cells; type: functional
[15] = Inhibition of cell migration of human SUIT-2 cells; type: functional, cell-based
MCF7 [16] = experiment: Antiproliferative activity against human MCF7 cells by SRB assay; type: functional, cell-based
HCT-116 [17] = experiment: Cytotoxicity against human HCT-116 cells; type: functional, cell-based
Histone deacetylase 4 = Histone deacetylase 4 (Homo sapiens, UniProt P56524); experiment: Inhibition of human recombinant HDAC4 using Boc-Lys(Ac)-AMC as substrate preincubated for 15 mins followed by substrate addition and measured after 60 mins by fluorescence based analysis
Chain of Histone deacetylase 4 (P56524 whole entry): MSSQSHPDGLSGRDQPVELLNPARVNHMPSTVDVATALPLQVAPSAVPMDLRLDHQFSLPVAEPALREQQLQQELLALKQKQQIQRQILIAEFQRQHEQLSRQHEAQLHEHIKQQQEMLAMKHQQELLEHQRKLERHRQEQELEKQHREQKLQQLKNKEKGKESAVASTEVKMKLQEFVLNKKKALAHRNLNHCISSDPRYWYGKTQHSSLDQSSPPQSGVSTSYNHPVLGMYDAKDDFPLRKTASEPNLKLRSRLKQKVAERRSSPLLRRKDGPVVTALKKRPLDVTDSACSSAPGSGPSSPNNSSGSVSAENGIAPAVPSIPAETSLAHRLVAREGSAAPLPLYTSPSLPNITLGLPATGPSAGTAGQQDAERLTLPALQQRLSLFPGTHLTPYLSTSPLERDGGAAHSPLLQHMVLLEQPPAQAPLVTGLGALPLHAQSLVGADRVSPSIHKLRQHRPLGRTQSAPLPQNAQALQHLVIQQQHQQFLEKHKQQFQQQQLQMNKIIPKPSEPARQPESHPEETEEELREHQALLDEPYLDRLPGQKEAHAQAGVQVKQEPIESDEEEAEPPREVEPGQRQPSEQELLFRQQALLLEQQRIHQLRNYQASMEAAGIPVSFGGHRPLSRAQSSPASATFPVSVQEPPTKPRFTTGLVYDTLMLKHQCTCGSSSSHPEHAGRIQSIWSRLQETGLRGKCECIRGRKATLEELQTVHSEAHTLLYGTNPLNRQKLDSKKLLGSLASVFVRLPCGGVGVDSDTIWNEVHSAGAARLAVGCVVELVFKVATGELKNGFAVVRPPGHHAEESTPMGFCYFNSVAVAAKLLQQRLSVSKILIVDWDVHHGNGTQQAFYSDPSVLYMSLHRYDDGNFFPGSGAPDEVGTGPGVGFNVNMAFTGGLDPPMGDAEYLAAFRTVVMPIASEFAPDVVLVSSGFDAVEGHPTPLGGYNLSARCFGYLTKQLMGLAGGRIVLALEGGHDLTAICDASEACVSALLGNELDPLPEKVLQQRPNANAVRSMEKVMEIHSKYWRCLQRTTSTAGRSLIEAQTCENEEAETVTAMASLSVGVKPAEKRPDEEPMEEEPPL

[18] = target: Bromodomain-containing protein 4 (Homo sapiens) (UniProt O60885); experiment: Inhibition of GST tagged BRD4 (unknown origin) at 10 uM by HTRF assay relative to control
THP-1 = experiment: Antiproliferative activity against human THP-1 cells incubated for 24 hrs by trypan blue reagent based analysis; type: functional, cell-based; details: THP-1, 24 h
HeLa [19] = experiment: Cytotoxicity against human HeLa cells; type: functional, cell-based
A549 [20] = experiment: Cytotoxicity against human A549 cells assessed as reduction in cell growth; type: functional, cell-based
MCF7 [21] = experiment: Cytotoxicity against human MCF7 cells; type: functional, cell-based
HepG2 [22] = experiment: Anticancer activity against human HepG2 cells incubated for 24 hrs by SRB method; type: functional, cell-based; details: HepG2, 24 h
MCF7 [23] = experiment: Anticancer activity against human MCF7 cells incubated for 24 hrs by SRB method; type: functional, cell-based; details: MCF7, 24 h
HCT-116 [24] = experiment: Anticancer activity against human HCT-116 cells incubated for 24 hrs by SRB method; type: functional, cell-based; details: HCT-116, 24 h
HepG2 [25] = experiment: Cytotoxicity against human HepG2 cells; type: functional, cell-based
A549 [26] = experiment: Antitumor activity against human A549 cells xenografted in mouse model assessed as tumor growth inhibition relative to control; type: functional; parameters: scale not given: the % may be the effect or the level left
[27] = Cytotoxicity against human Triple-negative breast cancer cells; type: functional, cell-based; details: Triple-negative breast cancer cell
MDA-MB-231 = experiment: Cytotoxicity against human MDA-MB-231 cells measured after 72 hrs; type: functional, cell-based; details: MDA-MB-231, 72 h
DU-145 = experiment: Antiproliferative activity against human DU-145 cells; type: functional, cell-based

Compound: O=C(c1nnc(Nc2ccccc2F)o1)c1c[nH]c2ccccc12
- IC50 (Tubulin): 3.89 µM
- IC50 (MCF7 [1]): 2.42 µM

Compound: C[C@H]1NC(=O)[C@@H](Cc2c[nH]c3ccccc23)n2c1nc1ccccc1c2=O [FUMIQUINAZOLINE G]
- GI50 (NCI-H460): 7.62 µM
- GI50 (BXPC-3): 7.62 µM
- GI50 (PANC-1): 7.62 µM

Compound: COc1ccc(CC/N=C2\NC(=O)/C(=C/c3c[nH]c4ccc(Br)cc34)S2)cc1
- IC50 (HCT-15): 0.92 µM

Compound: COc1cc(/C=C/c2ncc([N+](=O)[O-])n2CCOC(=O)c2c[nH]c3ccccc23)cc(OC)c1OC
- IC50 (HeLa [2]): 0.015 µM

Compound: N=c1nc(-c2cn(S(=O)(=O)c3ccccc3)c3ccccc23)cc(-c2cccc(O)c2)[nH]1
- Ratio IC50 (HepG2 [3]): >8
- Ratio IC50 (MCF7 [4]): >8
- Ratio IC50 (HCT-116 [5]): >8

Compound: Nc1ccccc1Oc1cccc(C(c2c[nH]c3ccc(Cl)cc23)c2c[nH]c3ccc(Cl)cc23)c1
- IC50 (MCF7 [6]): 34.8 µM

Compound: CC(C)(C)OC(=O)N1CCC2C(C1)c1cc(Br)ccc1N2S(=O)(=O)c1ccc(Cl)cc1 (configuration not stated)
- IC50 (HeLa [7]): 9.42 µM

Compound: CS(=O)(=O)n1cc(-c2cc(-c3cccc(O)c3)[nH]c(=O)n2)c2ccccc21
- Ratio IC50 (HepG2 [3]): >8
- Ratio IC50 (MCF7 [4]): >8
- Ratio IC50 (HCT-116 [5]): >8

Compound: CNC(=S)N/N=C/c1c(-c2ccc(OC)cc2)[nH]c2ccccc12
- IC50 (A549 [8]): 12.5 µM
- Ratio IC50 [9]: 2.27

Compound: COc1cc([C@@H]2c3cc4c(cc3[C@H](OC(=O)Cc3ccc5cc[nH]c5c3)[C@H]3COC(=O)[C@H]23)OCO4)cc(OC)c1OC
- Ratio IC50 [9]: 2.27

Compound: Nc1c(C(=O)c2cccc3ccccc23)[nH]c2ncccc12
- IC50 (HeLa [10]): 3.7 µM
- IC50 (HepG2 [11]): 8 µM
- IC50 (MCF7 [12]): 19.9 µM

Compound: COc1ccc(OC)c(-c2cn3nc(-c4c[nH]c5ccc(Br)cc45)sc3n2)c1
- IC50 [13]: < 10 µM
- GI50 [14]: 10.3 µM
- GI50 (UO-31): 1.67 µM
- IC50 [15]: < 10 µM

Compound: COc1ccc2c(c1)c(/C=N/NC(=O)Cc1c[nH]c3ncccc13)cn2Cc1ccc(F)cc1F
- IC50 (MCF7 [16]): 22.3 µM

Compound: Cn1cc(-c2nc(-c3cn(C)c4ncc(Cl)cc34)no2)c2cc(Br)ccc21
- IC50 (HCT-116 [17]): 1.93 µM

Compound: COc1cnc2c(c1)c(-c1noc(-c3cn(C)c4ccc(Br)cc34)n1)cn2C
- IC50 (HCT-116 [17]): 3.55 µM

Compound: O=c1nc(-c2cn(S(=O)(=O)c3ccccc3)c3ccccc23)cc(-c2cccc(O)c2)[nH]1
- Ratio IC50 (HepG2 [3]): >8
- Ratio IC50 (MCF7 [4]): >8
- Ratio IC50 (HCT-116 [5]): >8

Compound: Cc1noc(C)c1-c1ccc2c(c1)c(Cc1ccc(F)cc1)cn2CCCCCCCC(=O)NO
- IC50 (Histone deacetylase 4): 0.005 µM
- inhibition [18]: 88%
- IC50 (THP-1): 15.5 µM

Compound: COc1cc(C(c2c[nH]c3ccccc23)c2c[nH]c3ccccc23)cc(Cl)c1O
- IC50 (HeLa [19]): 0.37 µM
- IC50 (A549 [20]): 0.34 µM

Compound: O=C(Nc1cc([N+](=O)[O-])cc([N+](=O)[O-])c1)c1coc(-c2c[nH]c3cccnc23)n1
- IC50 (MCF7 [21]): 0.034 µM

Compound: CC(=O)Nc1cccc(C(=O)/C=C2\C(=O)Nc3ccc(S(=O)(=O)N4CCOCC4)cc32)c1
- IC50 (HepG2 [22]): < 10 µM
- IC50 (MCF7 [23]): < 10 µM
- IC50 (HCT-116 [24]): < 10 µM

Compound: COc1ccc(OC)c(-c2cn3nc(-c4cn(C)c5ccc(Br)cc45)sc3n2)c1
- IC50 [13]: < 10 µM
- IC50 [15]: < 10 µM

Compound: O=C(O)C1=C2C(=Nc3ccc(S(=O)(=O)N4CCOCC4)cc32)NC1=O
- IC50 (HepG2 [22]): < 10 µM
- IC50 (MCF7 [23]): < 10 µM
- IC50 (HCT-116 [24]): < 10 µM

Compound: Cn1cc(C2=C(C#N)C(c3ccc(Cl)cc3)c3c(nc(N)[nH]c3=O)N2)c2ccccc21 (configuration not stated)
- IC50 (HepG2 [25]): 3.57 µM

Compound: N#Cc1ccc(Cn2cc(/C=N/NC(=O)Cc3c[nH]c4ncccc34)c3cc(Br)ccc32)cc1
- IC50 (MCF7 [16]): 22.3 µM

Compound: CS(=O)(=O)n1cc(-c2cc(-c3cccc(O)c3)[nH]c(=S)n2)c2ccccc21
- Ratio IC50 (HepG2 [3]): >8
- Ratio IC50 (MCF7 [4]): >8
- Ratio IC50 (HCT-116 [5]): >8

Compound: Nc1ccccc1Oc1cccc(C(c2c[nH]c3ccccc23)c2c[nH]c3ccccc23)c1
- IC50 (MCF7 [6]): 23.6 µM

Compound: O=C(Cc1c[nH]c2ncccc12)N/N=C/c1cn(Cc2ccc(Cl)cc2Cl)c2ccc(Br)cc12
- IC50 (MCF7 [16]): 22.3 µM

Compound: CCOC(=O)/C(C#N)=C1/C(=O)Nc2ccc(S(=O)(=O)N3CCOCC3)cc21
- IC50 (HepG2 [22]): < 10 µM
- IC50 (MCF7 [23]): < 10 µM
- IC50 (HCT-116 [24]): < 10 µM

Compound: COc1ccc2c(c1)c(/C=N/NC(=O)Cc1c[nH]c3ncccc13)cn2Cc1ccc(Br)cc1
- IC50 (MCF7 [16]): 22.3 µM

Compound: COc1cc2cc(C(=O)N3CCC=C(Cl)C3=O)n(C)c2c(OC)c1OC
- Activity (A549 [26]): 54.6%

Compound: CS(=O)(=O)n1cc(-c2cc(-c3cccc(O)c3)[nH]c(=N)n2)c2ccccc21
- Ratio IC50 (HepG2 [3]): >8
- Ratio IC50 (MCF7 [4]): >8
- Ratio IC50 (HCT-116 [5]): >8

Compound: N#CC(C#N)=C1C(=O)Nc2ccc(S(=O)(=O)N3CCOCC3)cc21
- IC50 (HepG2 [22]): < 10 µM
- IC50 (MCF7 [23]): < 10 µM
- IC50 (HCT-116 [24]): < 10 µM

Compound: COC(=O)c1ccc(C(=O)/C=C2\C(=O)Nc3ccc(S(=O)(=O)N4CCOCC4)cc32)cc1
- IC50 (HepG2 [22]): < 10 µM
- IC50 (MCF7 [23]): < 10 µM
- IC50 (HCT-116 [24]): < 10 µM

Compound: O=C(Cc1c[nH]c2ncccc12)N/N=C/c1cn(Cc2ccc(Cl)cc2Cl)c2ccccc12
- IC50 (MCF7 [16]): 22.3 µM

Compound: Cc1cccc2c(C(c3ccc(O)cc3)c3c[nH]c4c(C)cccc34)c[nH]c12
- IC50 [27]: 10 µM

Compound: CCCCCc1cc2cc(C)cc(/N=C/c3[nH]c(C)c(CCCCC)c3C)c2[nH]1
- IC50 (MDA-MB-231): 4.2 µM

Compound: COc1cccc2c1C(=O)c1c(O)c3c(c(O)c1C2=O)C[C@@](O)(C(=O)CO)C[C@@H]3O[C@H]1C[C@H](N)[C@H](O)[C@H](C)O1 [DOXORUBICIN]
- Activity (A549 [26]): 53.3%

Compound: O=C(Nc1ccc(Br)cc1)c1coc(-c2c[nH]c3cccnc23)n1
- IC50 (MCF7 [21]): 0.36 µM

Compound: COc1cc([C@@H]2c3cc4c(cc3[C@@H](O[C@@H]3O[C@@H]5CO[C@@H](C)O[C@H]5[C@H](O)[C@H]3O)[C@H]3COC(=O)[C@H]23)OCO4)cc(OC)c1O [ETOPOSIDE]
- IC50 (DU-145): 9.8 µM

Source: ChEMBL document CHEMBL5230093, “The importance of indole and azaindole scaffold in the development of antitumor agents” (Eur J Med Chem, 2020)
